Test: Radiochemical purity and radiochemical stability of ^68GaPSMA-11 by HPLC
Assay type: physicochemical
Details: for [^68Ga] Gallium PSMA-11 (sum of stereosiomers), HPLC / [^68Ga] Gallium free, HPLC / [^68Ga] Gallium main degradant, HPLC: t0 h
Procedure: Radiochemical Purity and Identification of ^68GaPSMA-11 by HPLC
Chromatographic Conditions
Radical Scavenger to be used for the improvement of the radiochemical stability of ^68Ga-PSMA-11, tests were performed according to a varied approach in order to consider all the parameters that may affect the radiochemical purity of the product (activity, pH, volume, amount of Gentisic Acid).
Stability tests were performed on the freeze dried product containing the final formulation. […] Kits manufactured with the final formulation, indeed, were stored at different stability conditions (2-8° C.; 25° C. and 40° C.) and were tested at different time points for API-assay, Radiochemical Purity and Radiochemical Stability of the radiolabelled product. Radiochemical Purity and Stability were assessed only eluting IRE Generator which represented the most stressful condition in terms of Radioactive Concentration (Volumic Activity).

[1] = Gentisic Acid 0 μg, IRE 17.19 mCi, 1 mL, pH 5.24
[2] = Gentisic Acid 200 μg, IRE 17.85 mCi, 1 mL, pH 5.22
[3] = Gentisic Acid 200 μg, IRE 18.07 mCi, 1 mL, pH 5.25
[4] = Gentisic Acid 200 μg, ITG 35.92 mCi, 4 mL, pH 4.83
[5] = Gentisic Acid 400 μg, IRE 17.44 mCi, 1 mL, pH 5.13
[6] = Gentisic Acid 400 μg, IRE 17.79 mCi, 1 mL, pH 5.11
[7] = Gentisic Acid 400 μg, ITG 16.9 mCi, 4 mL, pH 4.85
[8] = Gentisic Acid 400 μg, ITG 31.97 mCi, 4 mL, pH 4.81
[9] = Gentisic Acid 1000 μg, E&Z 15.65 mCi, 5 mL, pH 3.75
[10] = Gentisic Acid 1000 μg, IRE 17.1 mCi, 1 mL, pH 5.08
[11] = Gentisic Acid 1000 μg, ITG 30.9 mCi, 4 mL, pH 4.87
[12] = final formulation kit at Release, E&Z 15.65 mCi, 5 mL, pH 3.75
[13] = final formulation kit at Release, E&Z 16.80 mCi, 5 mL, pH 3.75
[14] = final formulation kit at Release, IRE 32.27 mCi, 1 mL, pH 4.95
[15] = final formulation kit at Release, IRE 32.95 mCi, 1 mL, pH 5.07
[16] = final formulation kit at Release, ITG 29.74 mCi, 4 mL, pH 4.67
[17] = final formulation kit at Release, ITG 30.90 mCi, 4 mL, pH 4.67
[18] = kit stored 3 months at 2-8° C., IRE 25.76 mCi, 1 mL, pH 5.29
[19] = kit stored 3 months at 25° C., IRE 24.56 mCi, 1 mL, pH 5.16
[20] = kit stored 3 months at 40° C., IRE 24.86 mCi, 1 mL, pH 5.23
[21] = kit stored 6 months at 2-8° C., IRE 19.90 mCi, 1 mL, pH 5.13
[22] = kit stored 6 months at 25° C., IRE 18.88 mCi, 1 mL, pH 5.09
[23] = kit stored 6 months at 40° C., IRE 19.34 mCi, 1 mL, pH 5.15

In the case of ^68Ga-PSMA-11 [[^68Ga] Gallium PSMA-11], the “time for which the radiolabelled product is stable with high radiochemical purity” value (400 μg Gentisic Acid) was “up to 4 hours”, the “[^68Ga] Gallium PSMA-11 (sum of stereosiomers), HPLC” value [1] was 92.71% and the “[^68Ga] Gallium free, HPLC” value [1] was 0.15%. For the same substance, the “[^68Ga] Gallium main degradant, HPLC” value [1] was 6.61%, the “[^68Ga] Gallium PSMA-11 (sum of stereosiomers), HPLC” value [2] was 97.76% and the “[^68Ga] Gallium free, HPLC” value [2] was 0.00%. For the same substance, the “[^68Ga] Gallium main degradant, HPLC” value [2] was 1.83%, the “[^68Ga] Gallium PSMA-11 (sum of stereosiomers), HPLC” value [3] was 98.46% and the “[^68Ga] Gallium free, HPLC” value [3] was 0.00%. For the same substance, the “[^68Ga] Gallium main degradant, HPLC” value [3] was 1.21%, the “[^68Ga] Gallium PSMA-11 (sum of stereosiomers), HPLC” value [4] was 99.56% and the “[^68Ga] Gallium free, HPLC” value [4] was 0.00%. For the same substance, the “[^68Ga] Gallium main degradant, HPLC” value [4] was 0.19%, the “[^68Ga] Gallium PSMA-11 (sum of stereosiomers), HPLC” value [5] was 99.29% and the “[^68Ga] Gallium free, HPLC” value [5] was 0.00%. For the same substance, the “[^68Ga] Gallium main degradant, HPLC” value [5] was 0.71%, the “[^68Ga] Gallium PSMA-11 (sum of stereosiomers), HPLC” value [6] was 98.88% and the “[^68Ga] Gallium free, HPLC” value [6] was 0.12%. The “[^68Ga] Gallium main degradant, HPLC” value [6] was 1.00%, the “[^68Ga] Gallium PSMA-11 (sum of stereosiomers), HPLC” value [7] was 99.16% and the “[^68Ga] Gallium free, HPLC” value [7] was 0.08%. The “[^68Ga] Gallium main degradant, HPLC” value [7] was 0.19%, the “[^68Ga] Gallium PSMA-11 (sum of stereosiomers), HPLC” value [8] was 99.35% and the “[^68Ga] Gallium free, HPLC” value [8] was 0.00%. For the same substance, the “[^68Ga] Gallium main degradant, HPLC” value [8] was 0.16%, the “[^68Ga] Gallium PSMA-11 (sum of stereosiomers), HPLC” value [9] was 99.87% and the “[^68Ga] Gallium free, HPLC” value [9] was 0.00%. The “[^68Ga] Gallium main degradant, HPLC” value [9] was 0.00%, the “[^68Ga] Gallium PSMA-11 (sum of stereosiomers), HPLC” value [10] was 99.67% and the “[^68Ga] Gallium free, HPLC” value [10] was 0.00%. For the same substance, the “[^68Ga] Gallium main degradant, HPLC” value [10] was 0.33%, the “[^68Ga] Gallium PSMA-11 (sum of stereosiomers), HPLC” value [11] was 99.80% and the “[^68Ga] Gallium free, HPLC” value [11] was 0.01%. For the same substance, the “[^68Ga] Gallium main degradant, HPLC” value [11] was 0.02%, the “[^68Ga] Gallium PSMA-11 (sum of stereosiomers), HPLC” value [12] was 99.87% and the “[^68Ga] Gallium free, HPLC” value [12] was 0.00%. For the same substance, the “[^68Ga] Gallium main degradant, HPLC” value [12] was 0.00%, the “[^68Ga] Gallium PSMA-11 (sum of stereosiomers), HPLC” value [13] was 99.68% and the “[^68Ga] Gallium free, HPLC” value [13] was 0.00%. The “[^68Ga] Gallium main degradant, HPLC” value [13] was 0.19%, the “[^68Ga] Gallium PSMA-11 (sum of stereosiomers), HPLC” value [14] was 99.58% and the “[^68Ga] Gallium free, HPLC” value [14] was 0.00%. The “[^68Ga] Gallium main degradant, HPLC” value [14] was 0.00%, the “[^68Ga] Gallium PSMA-11 (sum of stereosiomers), HPLC” value [15] was 99.66% and the “[^68Ga] Gallium free, HPLC” value [15] was 0.00%. The “[^68Ga] Gallium main degradant, HPLC” value [15] was 0.23%, the “[^68Ga] Gallium PSMA-11 (sum of stereosiomers), HPLC” value [16] was 99.81% and the “[^68Ga] Gallium free, HPLC” value [16] was 0.00%. For the same substance, the “[^68Ga] Gallium main degradant, HPLC” value [16] was 0.05%, the “[^68Ga] Gallium PSMA-11 (sum of stereosiomers), HPLC” value [17] was 98.80% and the “[^68Ga] Gallium free, HPLC” value [17] was 0.01%. The “[^68Ga] Gallium main degradant, HPLC” value [17] was 0.02%, the “[^68Ga] Gallium PSMA-11 (sum of stereosiomers), HPLC” value [18] was 99.28% and the “[^68Ga] Gallium free, HPLC” value [18] was 0.04%. The “[^68Ga] Gallium main degradant, HPLC” value [18] was 0.55%, the “[^68Ga] Gallium PSMA-11 (sum of stereosiomers), HPLC” value [19] was 99.22% and the “[^68Ga] Gallium free, HPLC” value [19] was 0.05%. For the same substance, the “[^68Ga] Gallium main degradant, HPLC” value [19] was 0.19%, the “[^68Ga] Gallium PSMA-11 (sum of stereosiomers), HPLC” value [20] was 98.92% and the “[^68Ga] Gallium free, HPLC” value [20] was 0.07%. For the same substance, the “[^68Ga] Gallium main degradant, HPLC” value [20] was 0.26%, the “[^68Ga] Gallium PSMA-11 (sum of stereosiomers), HPLC” value [21] was 99.40% and the “[^68Ga] Gallium free, HPLC” value [21] was 0.00%. For the same substance, the “[^68Ga] Gallium main degradant, HPLC” value [21] was 0.47%, the “[^68Ga] Gallium PSMA-11 (sum of stereosiomers), HPLC” value [22] was 99.32% and the “[^68Ga] Gallium free, HPLC” value [22] was 0.00%. For the same substance, the “[^68Ga] Gallium main degradant, HPLC” value [22] was 0.42%, the “[^68Ga] Gallium PSMA-11 (sum of stereosiomers), HPLC” value [23] was 99.21% and the “[^68Ga] Gallium free, HPLC” value [23] was 0.04%.
